Measurements: patent US11389536B2 (priority 2015, dated 2022)
Where two headings read alike, the source gives them in different places.

How the values were obtained:
[1] = test system: non-tumor-bearing athymic nude mice
Experimental: Non-tumor-bearing athymic nude mice were exposed to fractionated doses of 30 Gy radiation (weekly administration of 5 Gy) in the presence or absence of twice weekly intravenous (i.v.) injections of Ce02 or intraperitoneal (i.p.) injections of Amifostine 30 min prior to radiation. Amifostine is a free radical scavenger. […] Treatments continued for […] for a total dose of 30 Gy radiation. The mice were killed and necropsied only when they became moribund or the experiment was terminated. The weight and mortality of each mouse was measured throughout the experiment and median and percent survival was determined, as shown in FIG. 22E.

[2] = test system: lungs of athymic nude mice; assay: Lung histology for radiation-induced pneumonitis and fibrosis (H&E, Masson's trichrome); assay type: in vivo; conditions: irradiated lungs
Experimental: For the in vivo studies, athymic nude mice are housed in the specific pathogen-free (SPF) Cancer Research Institute animal facility which exceeds the national requirements for animal care, with two conventional mouse rooms, two nude mouse rooms, and one quarantine room. Radiation was administered using an IC160 X-ray cell culture and small animal irradiation system (Kimtron Inc., Woodbury, Conn., USA) located inside the animal facility. Nine weeks post radiation, the mice were sacrificed and the lungs were harvested and processed for hematoxylin and eosin (H&E) staining. For immunohistochemistry and hematoxylin and eosin-staining procedures, one part of the tumor tissue is formalin-fixed and paraffin-embedded and another part embedded in OCT compound (Miles, Inc., Elkhart, Ind.), rapidly frozen in liquid nitrogen, and stored at […] for sectioning. Immunofluorescence microscopy is performed using a 20× objective on an epifluorescence microscope equipped with narrow bandpass excitation filters mounted in a filter wheel (Ludl Electronic Products, Hawthorne, N.Y.).
To determine the degree of radiation-induced pneumonitis, the lungs were harvested and processed for histology and H&E staining (FIGS. 23A-23D) and the amount of fibrosis and collagen deposition, indicative of chronic lung conditions, was measured using Masson's trichrome stain (FIGS. 23E-23H).

With `NCCCNCCSP(=O)(O)O` [Amifostine] the median survival time ([1]; agent alone, no radiation (Amifostine 150 mg/kg i.p.)) was 119 days, the “tolerability / toxicity to mice” value ([1]; athymic nude mice) was “highly toxic to the mice” and the median survival time ([1]; combination with radiation (5 Gy fractions, total 30 Gy), CONPs 15 nM i.v. twice weekly, Amifostine i.p. 30 min prior to radiation) was 81 days. For the same molecule, the “fibrosis and collagen deposition (Masson's Trichrome stain)” value [2] was “fibrosis and collagen deposition were common”.
